Source: PMC8894159, “Paltusotine, a novel oral once-daily nonpeptide SST2 receptor agonist, suppresses GH and IGF-1 in healthy volunteers” (Pituitary, 2022)
Like-named read-outs stand apart in the source and are kept apart here.

How the values were obtained:
[1] = Single ascending dose plasma pharmacokinetics in healthy volunteers; format: in vivo; conditions: human
Description: In the single-dose phase, participants were randomized 6:2 to paltusotine (1.25, 2.5, 5, 10, 20, 40, and 60 mg) or placebo in 7 cohorts (S1 to S7). Cohorts comparing oral bioavailability of solution versus capsules and the effect of a standardized high-fat, high-calorie breakfast on oral bioavailability of the capsule formulation employed the 10 mg dose level. In the multiple-dose phase, participants were randomized 6:3 to once-daily oral paltusotine capsules or placebo at doses of 5 mg for 7 days (M1, Day Last = Day 7), and 10, 20, and 30 mg daily for 10 days (M2, M3, M4, Day Last = Day 10). The initial starting dose of 1.25 mg in the single-dose phase was selected for this study based on nonclinical pharmacologic activity, pharmacokinetics, and safety studies. Subsequent doses were either specified in the protocol or were selected by the safety review committee responsible for the safety oversight of the study.
Single-dose cohorts: Plasma samples were collected on Day 1 (pre-dose, every 15 min up to 90 min post-dose, then at 2, 3, 4, 6, 8, 10, 12, 18, 24, 48, 72, 96, 120, and 144 h post-dose). Multiple-dose cohorts: For the 5 mg cohort, plasma samples were collected on Day 1 (pre-dose, every 15 min up to 90 min post-dose, then at 2, 3, 4, 6, 8, 10, 12, and 18 h post-dose), Days 2–6 (pre-dose and 2 h post-dose), Day 7 (same time points as Day 1, followed by samples at 18, 24, 48, 72, 96, 120, and 144 h post-dose). For all other multiple-dose cohorts, plasma samples were collected on Day 1 (pre-dose, every 15 min up to 90 min post-dose, then at 2, 3, 4, 6, 8, 10, 12, and 18 h post-dose), Days […] (same time points as Day 1, followed by samples at 18, 24, 48, 72, 96, 120, 144, 192, and 240 h post-dose).
Plasma pharmacokinetic sample analysis for paltusotine was determined using validated procedures by CPR Pharma Services (Thebarton, Australia). Briefly, plasma paltusotine concentrations were determined by high-pressure liquid chromatography (HPLC) coupled with tandem mass spectrometry detection (MS/MS). Deuterated paltusotine was used as an internal standard. Supported liquid extraction was used to extract paltusotine and the internal standard. The analyte was separated by HPLC using an ACE C18-AR column (Advanced Chromatography Technologies, Ltd, Aberdeen, Scotland), and the eluates were monitored by an API 4000™ LC–MS/MS System (Sciex, Framingham, MA) in positive multiple reaction monitoring mode. The extract was then assayed against a calibration curve. The data were acquired and integrated by the data acquisition software Analyst® (Sciex), linked directly to the API 4000™ LC–MS/MS System, and then processed using Watson LIMS™ software (Thermo Scientific, Waltham, MA), where applicable. The calibration range was 0.100 to 100 ng/mL using 100 μL of plasma, with a lower limit of quantification of 0.100 ng/mL. The inter-assay accuracy was 94% to 100%, and the inter-assay precision (% CV) was between 6.1% and 15%.
For assessing pharmacokinetics of paltusotine, the single-dose pharmacokinetic population included all randomized participants who received any amount of study drug with sufficient plasma concentration data. For the multiple-dose cohorts, only participants who received all doses were included. The relative bioavailability of the capsule formulation was determined by comparing its pharmacokinetic parameters with those of the solution formulation at the 10 mg dose. Food effect was determined at the same dose by comparing pharmacokinetic parameters in the fasting state to those when paltusotine was administered with a high-fat, high-calorie meal. For both formulation and food effect, ANOVA with treatment as a fixed effect and subject as a random effect was performed. Data for peak concentration (Cmax), AUC0-last, and AUC0-inf were natural log-transformed.

[2] = set-up: method as in ref 14 = [14]; 14. Madan A, Juo R, Ferrara-Cook C, Struthers RS, van Marle S, Krasner A (2020) Absorption, metabolism, excretion and absolute oral bioavailability [ 14 C]-CRN00808, an orally bioavailable, nonpeptide; conditions: cited from earlier work
[3] = oral, single dose 40 mg capsules, fasted, mean ± SD
[4] = oral, single dose 60 mg capsules, fasted, mean ± SD
[5] = single dose 1.25 mg oral solution, fasted, mean ± SD
[6] = single dose 2.5 mg oral solution, fasted, mean ± SD
[7] = single dose 5 mg oral solution, fasted, mean ± SD
[8] = single dose 10 mg oral solution, fasted, mean ± SD
[9] = single dose 20 mg oral solution, fasted, mean ± SD

Cl.N#Cc1cccc(-c2ccc3ncc(-c4cc(F)cc(F)c4)c(N4CCC(N)CC4)c3c2)c1O [paltusotine, 3-[4-(4-Aminopiperidin-1-yl)-3-(3,5-difluorophenyl)quinolin-6-yl]-2-hydroxybenzonitrile hydrochloride]
half-life ([1]; oral, overall summary (abstract), read-out: half-life of elimination (converted)): ~30 h
half-life ([1]; oral, sampling up to 144 h post-dose (single-dose cohorts and 5 mg multiple-dose cohort), range, read-out: t1/2 (converted)): 22 to 34 h
AUC(0-inf) [1, 3]: 2650 ± 1200 ng·h/mL
Cmax [1, 3]: 185 ± 118 ng/mL
Tmax ([1]; oral, single dose 40 mg capsules, fasted, mean ± SD, read-out: Tmax): 3.4 ± 1.1 h
half-life ([1]; oral, single dose 40 mg capsules, fasted, mean ± SD, read-out: t1/2 (converted)): 27 ± 3.1 h
AUC(0-inf) [1, 4]: 2300 ± 1060 ng·h/mL
Cmax [1, 4]: 154 ± 77.6 ng/mL
Tmax ([1]; oral, single dose 60 mg capsules, fasted, mean ± SD, read-out: Tmax): 3 ± 1.2 h
half-life ([1]; oral, single dose 60 mg capsules, fasted, mean ± SD, read-out: t1/2 (converted)): 25 ± 2.1 h
AUC(0-inf) [1, 5]: 122 ± 25.7 ng·h/mL
Cmax [1, 5]: 9.81 ± 1.56 ng/mL
Tmax ([1]; single dose 1.25 mg oral solution, fasted, mean ± SD, read-out: Tmax): 1.3 ± 0.44 h
half-life ([1]; single dose 1.25 mg oral solution, fasted, mean ± SD, read-out: t1/2 (converted)): 22 ± 5.5 h
AUC(0-inf) [1, 6]: 320 ± 66.3 ng·h/mL
Cmax [1, 6]: 22.7 ± 4.74 ng/mL
Tmax ([1]; single dose 2.5 mg oral solution, fasted, mean ± SD, read-out: Tmax): 1.6 ± 0.8 h
half-life ([1]; single dose 2.5 mg oral solution, fasted, mean ± SD, read-out: t1/2 (converted)): 29 ± 9 h
AUC(0-inf) [1, 7]: 590 ± 93.7 ng·h/mL
Cmax [1, 7]: 48.1 ± 7.05 ng/mL
Tmax ([1]; single dose 5 mg oral solution, fasted, mean ± SD, read-out: Tmax): 1.3 ± 0.41 h
half-life ([1]; single dose 5 mg oral solution, fasted, mean ± SD, read-out: t1/2 (converted)): 25 ± 9.4 h
AUC(0-inf) [1, 8]: 1650 ± 464 ng·h/mL
Cmax [1, 8]: 95.2 ± 19.3 ng/mL
Tmax ([1]; single dose 10 mg oral solution, fasted, mean ± SD, read-out: Tmax): 2.2 ± 1.3 h
half-life ([1]; single dose 10 mg oral solution, fasted, mean ± SD, read-out: t1/2 (converted)): 29 ± 4.3 h
AUC(0-inf) [1, 9]: 2960 ± 963 ng·h/mL
Cmax [1, 9]: 167 ± 29.1 ng/mL
Tmax ([1]; single dose 20 mg oral solution, fasted, mean ± SD, read-out: Tmax): 1.9 ± 1 h
half-life ([1]; single dose 20 mg oral solution, fasted, mean ± SD, read-out: t1/2 (converted)): 29 ± 5 h
Tmax ([1]; single-dose oral solution, fasted, range across 1.25-20 mg, read-out: Tmax (time of median peak concentrations)): 1.3 to 2.2 h
half-life ([1]; single-dose oral solution, fasted, range across 1.25-20 mg, read-out: apparent terminal elimination t1/2): 22 to 29 h
oral bioavailability in animals [2]: high oral bioavailability
